Values of other authors in patent publication US6440395B1, “Antiplaque mouth rinse” (priority 1992, dated 2002).

Structure (SMILES): CCCCCCCCCCCCCCCC[n+]1ccccc1 [CPC, cetyl pyridinium chloride]
- solubility in water and alcohol (water and alcohol, stated in words): highly soluble

Structure (SMILES): Oc1cc(Cl)ccc1Oc1ccc(Cl)cc1Cl [Triclosan, 2,4,4′-trichloro-2′-hydroxydiphenyl ether]
- solubility in water (in water at 25° C.): less than 1 % by weight
